Reference: patent publication US4649911A, “Small particle aerosol generator for treatment of respiratory disease including the lungs” (Baylor College of Medicine, priority 1986, dated 1987)

Settings: human, in vivo
Procedure: The following hematologic studies were performed at admission and at discharge from the hospital: hematocrit, red cell count, white cell count, differential white cell count, hemoglobin concentration and reticulocyte count. Biochemical tests as follows were performed on admission, at discharge, and one month later: indirect bilirubin, direct bilirubin, total bilirubin, blood urea nitrogen, creatinine, glucose, calcium, phosphorus, albumin, total protein, alkaline phcsphatase, serum aspartate transminase (ASP), and serum alanine transaminase (ALT), lactic dehydrogenase (LDH), creatine phosphokinase (CPK), uric acid, and aldolase.
Clinical chemical tests were performed on 14 treated and 17 control patients at admission; at discharge there were 13 treated and 15 controls, and at one month there were 11 and 17 sets of tests performed.

NC(=O)c1ncn([C@@H]2O[C@H](CO)[C@@H](O)[C@H]2O)n1 [ribavirin]
absolute lymphocyte count: more than doubled
